Data: US20060104901A1, “Preventing or treating epithelial tissue damage or hair loss” (priority 2002, published 2006)

System: CD1d gene transcription
Test: CD1d mRNA by Real Time PCR in primary human keratinocytes under H2O2 chemical stress
Format: cell-based
Conditions: primary human keratinocytes exposed to 300 μM H2O2, KGM with vs without hydrocortisone, RNA at different times after treatment, FIG. 11
Protocol: Primary human keratinocytes were grown in complete KGM before being exposed to 300 μM H2O2 as a stress factor. 48 hours after seeding, KGM medium was replaced by KGM without hydrocortisone and cultures were treated with 300 μM of H2O2. Total RNA was extracted at different time after treatment and CD1d mRNA quantified by Real Time PCR.
For Taq Man Assays, Applied Biosystems recommends to use 10 to 100 ng of initial RNA quantity per well. Consequently, first strand cDNA synthesis was performed in a 20 μl volume using 1 μg of total RNA and […] of random hexamers following the manufacturer's recommendations (Superscript™ First-Strand Synthesis System for RT-PCR, 11904-018, Invitrogen). 1 μl of the resulting cDNA samples was used for amplification by Real Time PCR. […]
All the cDNA samples were tested in triplicate. […] The plate was sealed, centrifuged at 2000 rpm for 30 seconds and placed in a 5700 Sequence Detection System for thermal cycling and fluorescence analysis using the following PCR program: […]
Results were analyzed using the GeneAmp® 5700 SDS software. […]
The gene expression fold changes obtained in the test condition compared to the control condition were determined by the comparative Ct method using the following formula: [formula] […]

C[C@]12CCC(=O)C=C1CC[C@@H]1[C@@H]2[C@@H](O)C[C@@]2(C)[C@H]1CC[C@]2(O)C(=O)CO [Hydrocortisone]
CD1d gene transcription (CD1d mRNA, fold change by comparative Ct method): able to down-regulate CD1d expression | CD1d gene transcription (CD1d mRNA, fold change by comparative Ct method) (listed as hydrocortisone): suppresses CD1d transcription
